Test results taken from publication PMC11303713, “Allosteric inhibition of CFTR gating by CFTRinh-172 binding in the pore” (Nature Communications, 2024).
Values joined by “and” are separate entries in the source; they are usually repeats but may differ in a detail not shown here. Identical values can stand only once. Like-named read-outs stand apart in the source and are kept apart here.

Tests used:
Assay in all cases: Inside-out patch-clamp inhibition of CFTR current by Inh-172
Assay type in all cases: cell-based
[1] = target: T1, pig WT-CFTR (Sus scrofa, UniProt Q6PQZ2)
T1 construct: expressed in transfected cells; host or cells: CHO cells, pcDNA plasmid

[2] = target: T2, h-pTMD1-h-CFTR (human CFTR with pig CFTR's TMD1) (Homo sapiens, UniProt P13569, A209T/D426N/E115A/E407K/F315L/F87I/G228A/I125V/I215L/I231V/I328L/I332M/L145P/N418S/N445S/P41S/Q39H/R242K/S256N/T421I/V11I/V12F/V43S)
T2 construct: expressed in transfected cells; host or cells: CHO cells, pcDNA plasmid

[3] = target: T3, h-pTM8-h-CFTR (human CFTR, three TM8 amino acids replaced with pig's) (Homo sapiens, UniProt P13569, F931L/M929L/T925G); conditions: for inhibition at 1 µM: 1000 nM Inh-172; for inhibition at 5 µM: 5000 nM Inh-172; for inhibition at 10 µM: 10000 nM Inh-172
T3 construct: expressed in transfected cells; host or cells: CHO cells, pcDNA plasmid

[4] = target: T4, W1145A-CFTR (Homo sapiens, UniProt P13569, W1145A)
T4 construct: expressed in transfected cells; host or cells: CHO cells, pcDNA plasmid

[5] = target: T5, W1145L-CFTR (Homo sapiens, UniProt P13569, W1145L)
T5 construct: expressed in transfected cells; host or cells: CHO cells, pcDNA plasmid

[6] = 50 nM Inh-172, read-out: percent inhibition of current, Mean
[7] = 100 nM Inh-172, read-out: percent inhibition of current, Mean
[8] = 500 nM Inh-172, read-out: percent inhibition of current, Mean
[9] = 500 nM Inh-172, read-out: percent inhibition of current, individual cell
[10] = 1000 nM Inh-172, read-out: percent inhibition of current, Mean
[11] = 5000 nM Inh-172, read-out: percent inhibition of current, Mean
[12] = 5000 nM Inh-172, read-out: percent inhibition of current, individual cell
[13] = 10000 nM Inh-172, read-out: percent inhibition of current, Mean
[14] = 10000 nM Inh-172, read-out: percent inhibition of current, individual cell
[15] = 100 nM Inh-172, read-out: percent inhibition of current, individual cell
[16] = 1000 nM Inh-172, read-out: percent inhibition of current, individual cell
[17] = read-out: percent inhibition of current, Mean
[18] = read-out: percent inhibition of current, individual cell

T3 sequence (P13569 whole entry T925G/M929L/F931L): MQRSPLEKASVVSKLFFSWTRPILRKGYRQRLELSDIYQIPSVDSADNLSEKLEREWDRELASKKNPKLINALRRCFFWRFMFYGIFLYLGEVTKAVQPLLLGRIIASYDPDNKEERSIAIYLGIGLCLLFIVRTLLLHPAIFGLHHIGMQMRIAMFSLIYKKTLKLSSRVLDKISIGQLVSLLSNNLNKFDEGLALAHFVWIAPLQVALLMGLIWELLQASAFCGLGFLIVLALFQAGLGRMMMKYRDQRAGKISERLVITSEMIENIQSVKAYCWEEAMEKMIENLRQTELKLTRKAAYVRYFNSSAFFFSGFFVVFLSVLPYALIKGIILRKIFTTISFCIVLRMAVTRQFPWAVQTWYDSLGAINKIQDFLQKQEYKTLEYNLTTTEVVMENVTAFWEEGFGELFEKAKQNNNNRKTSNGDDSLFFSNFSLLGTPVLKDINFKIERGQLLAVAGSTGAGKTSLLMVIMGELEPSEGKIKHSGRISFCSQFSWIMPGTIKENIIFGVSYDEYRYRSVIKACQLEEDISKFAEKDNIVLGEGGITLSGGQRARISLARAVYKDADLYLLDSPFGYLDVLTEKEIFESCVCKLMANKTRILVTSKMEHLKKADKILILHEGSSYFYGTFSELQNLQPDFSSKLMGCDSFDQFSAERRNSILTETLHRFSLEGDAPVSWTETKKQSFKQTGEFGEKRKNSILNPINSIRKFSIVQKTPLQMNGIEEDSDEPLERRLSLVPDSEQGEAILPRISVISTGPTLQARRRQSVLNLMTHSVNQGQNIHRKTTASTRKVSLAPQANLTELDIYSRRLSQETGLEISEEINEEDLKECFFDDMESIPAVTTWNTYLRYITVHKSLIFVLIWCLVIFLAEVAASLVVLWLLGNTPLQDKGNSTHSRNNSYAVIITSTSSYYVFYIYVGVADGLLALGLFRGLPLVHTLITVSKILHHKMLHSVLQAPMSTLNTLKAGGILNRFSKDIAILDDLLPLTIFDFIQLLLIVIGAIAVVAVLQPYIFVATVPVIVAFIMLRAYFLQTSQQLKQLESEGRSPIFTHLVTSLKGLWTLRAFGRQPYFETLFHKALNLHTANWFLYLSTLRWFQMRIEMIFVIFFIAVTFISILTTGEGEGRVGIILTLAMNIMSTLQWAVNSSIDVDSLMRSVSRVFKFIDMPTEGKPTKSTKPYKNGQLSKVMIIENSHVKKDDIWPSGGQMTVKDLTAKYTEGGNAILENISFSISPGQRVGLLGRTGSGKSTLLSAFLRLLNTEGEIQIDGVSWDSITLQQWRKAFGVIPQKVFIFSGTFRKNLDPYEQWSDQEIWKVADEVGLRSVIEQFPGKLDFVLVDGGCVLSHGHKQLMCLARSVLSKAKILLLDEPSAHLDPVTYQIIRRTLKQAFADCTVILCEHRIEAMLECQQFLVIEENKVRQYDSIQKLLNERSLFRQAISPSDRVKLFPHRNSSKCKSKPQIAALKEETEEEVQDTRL
T2 sequence (P13569 1-1480 with the stated changes): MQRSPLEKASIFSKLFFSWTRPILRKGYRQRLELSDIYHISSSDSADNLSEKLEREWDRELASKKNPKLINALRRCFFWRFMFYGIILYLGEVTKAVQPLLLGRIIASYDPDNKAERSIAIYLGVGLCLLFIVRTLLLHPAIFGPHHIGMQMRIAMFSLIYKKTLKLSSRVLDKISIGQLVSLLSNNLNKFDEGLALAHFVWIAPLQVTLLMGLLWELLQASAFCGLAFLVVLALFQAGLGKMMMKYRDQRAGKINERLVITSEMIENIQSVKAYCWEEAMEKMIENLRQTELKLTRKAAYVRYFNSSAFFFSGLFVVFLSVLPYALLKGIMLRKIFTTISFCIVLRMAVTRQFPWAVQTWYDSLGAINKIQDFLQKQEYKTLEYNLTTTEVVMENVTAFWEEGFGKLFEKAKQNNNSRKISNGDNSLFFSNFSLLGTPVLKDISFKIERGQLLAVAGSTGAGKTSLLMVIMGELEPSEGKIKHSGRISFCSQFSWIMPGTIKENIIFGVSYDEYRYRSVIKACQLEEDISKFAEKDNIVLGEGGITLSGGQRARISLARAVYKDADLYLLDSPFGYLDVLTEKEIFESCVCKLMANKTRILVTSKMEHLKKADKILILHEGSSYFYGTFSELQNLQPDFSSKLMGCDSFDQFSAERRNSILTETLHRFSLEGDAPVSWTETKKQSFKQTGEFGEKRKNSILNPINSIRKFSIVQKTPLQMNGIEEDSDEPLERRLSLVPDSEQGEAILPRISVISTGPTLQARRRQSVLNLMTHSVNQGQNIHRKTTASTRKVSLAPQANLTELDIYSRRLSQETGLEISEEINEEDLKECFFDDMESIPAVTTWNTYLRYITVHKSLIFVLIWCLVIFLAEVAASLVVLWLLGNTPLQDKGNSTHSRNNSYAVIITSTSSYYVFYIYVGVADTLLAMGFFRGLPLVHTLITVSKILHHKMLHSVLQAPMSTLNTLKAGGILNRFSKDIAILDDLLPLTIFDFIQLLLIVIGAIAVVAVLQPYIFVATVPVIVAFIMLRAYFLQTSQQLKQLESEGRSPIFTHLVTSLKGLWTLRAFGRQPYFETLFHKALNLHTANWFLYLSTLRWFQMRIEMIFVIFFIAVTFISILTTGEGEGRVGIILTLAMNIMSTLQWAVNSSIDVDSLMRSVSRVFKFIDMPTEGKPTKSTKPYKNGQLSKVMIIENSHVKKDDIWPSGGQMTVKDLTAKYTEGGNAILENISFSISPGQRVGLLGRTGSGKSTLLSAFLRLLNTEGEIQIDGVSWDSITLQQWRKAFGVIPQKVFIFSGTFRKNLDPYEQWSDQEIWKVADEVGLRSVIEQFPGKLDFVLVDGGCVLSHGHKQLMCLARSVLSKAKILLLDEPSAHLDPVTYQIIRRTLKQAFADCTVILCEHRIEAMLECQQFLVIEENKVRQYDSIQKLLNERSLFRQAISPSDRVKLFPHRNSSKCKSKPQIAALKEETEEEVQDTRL
T4 sequence (P13569 whole entry W1145A): as the sequence (P13569 whole entry T925G/M929L/F931L) above, with G925T, L929M, L931F, W1145A counted along it
T5 sequence (P13569 whole entry W1145L): as the sequence (P13569 whole entry T925G/M929L/F931L) above, with G925T, L929M, L931F, W1145L counted along it
T1 sequence (Q6PQZ2 whole entry): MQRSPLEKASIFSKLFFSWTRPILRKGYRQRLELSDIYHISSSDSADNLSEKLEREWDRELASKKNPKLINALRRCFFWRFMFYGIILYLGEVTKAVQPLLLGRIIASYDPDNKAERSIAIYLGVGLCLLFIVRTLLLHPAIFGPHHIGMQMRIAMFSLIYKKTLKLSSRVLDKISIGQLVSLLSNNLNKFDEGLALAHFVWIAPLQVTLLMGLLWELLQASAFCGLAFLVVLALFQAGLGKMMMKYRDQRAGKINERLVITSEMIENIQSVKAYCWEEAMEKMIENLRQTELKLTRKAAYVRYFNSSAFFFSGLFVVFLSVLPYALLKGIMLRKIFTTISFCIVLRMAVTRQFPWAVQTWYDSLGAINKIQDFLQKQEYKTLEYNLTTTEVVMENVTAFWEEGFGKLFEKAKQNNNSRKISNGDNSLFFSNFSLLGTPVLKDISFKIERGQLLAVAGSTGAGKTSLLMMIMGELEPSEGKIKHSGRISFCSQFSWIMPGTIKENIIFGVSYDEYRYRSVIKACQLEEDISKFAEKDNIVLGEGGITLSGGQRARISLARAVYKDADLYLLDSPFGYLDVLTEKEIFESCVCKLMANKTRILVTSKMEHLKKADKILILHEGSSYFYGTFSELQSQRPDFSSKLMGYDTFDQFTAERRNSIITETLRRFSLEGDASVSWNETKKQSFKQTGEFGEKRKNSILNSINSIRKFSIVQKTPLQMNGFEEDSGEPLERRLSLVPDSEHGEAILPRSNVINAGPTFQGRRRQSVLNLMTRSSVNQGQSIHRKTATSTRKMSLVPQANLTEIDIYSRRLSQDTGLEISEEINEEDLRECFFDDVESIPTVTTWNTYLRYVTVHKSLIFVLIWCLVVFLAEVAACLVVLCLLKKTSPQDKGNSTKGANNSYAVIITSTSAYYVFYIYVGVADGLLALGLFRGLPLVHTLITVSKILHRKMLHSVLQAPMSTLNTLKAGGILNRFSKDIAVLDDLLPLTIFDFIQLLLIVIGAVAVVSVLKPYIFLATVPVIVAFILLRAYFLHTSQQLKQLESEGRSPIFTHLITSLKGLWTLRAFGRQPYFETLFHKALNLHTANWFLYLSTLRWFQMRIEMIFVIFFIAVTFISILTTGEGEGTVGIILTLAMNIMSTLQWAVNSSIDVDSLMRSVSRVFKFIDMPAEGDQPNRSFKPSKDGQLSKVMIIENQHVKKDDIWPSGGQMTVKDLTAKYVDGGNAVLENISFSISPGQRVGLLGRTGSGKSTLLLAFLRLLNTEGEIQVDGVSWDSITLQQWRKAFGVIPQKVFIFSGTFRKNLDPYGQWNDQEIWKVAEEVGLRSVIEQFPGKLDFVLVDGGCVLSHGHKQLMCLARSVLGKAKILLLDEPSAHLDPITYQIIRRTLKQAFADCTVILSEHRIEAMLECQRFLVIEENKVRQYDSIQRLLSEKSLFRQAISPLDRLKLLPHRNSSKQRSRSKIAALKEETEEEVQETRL

O=C(O)c1ccc(/C=C2\SC(=S)N(c3cccc(C(F)(F)F)c3)C2=O)cc1 [Inh-172, CFTRinh-172]
percent inhibition of current, individual cell ([1]; 50 nM Inh-172): 2.0 and 4.0 and 8.0 and 15.0 and 7.0
inhibition at 0.05 µM [1, 6]: 7.2%
percent inhibition of current, individual cell ([1]; 100 nM Inh-172): 2.0 and 18.0 and 5.0 and 13.0 and 6.0 and 7.0
inhibition at 0.1 µM [1, 7]: 8.1%
percent inhibition of current, individual cell ([1]; 500 nM Inh-172): 31.0 and 27.0 and 25.0 and 23.0
inhibition at 0.5 µM [1, 8]: 25.9%
inhibition at 0.5 µM [1, 9]: 22%
percent inhibition of current, individual cell ([1]; 1000 nM Inh-172): 33.0 and 38.0 and 40.0 and 21.0 and 41.0 and 44.0 and 39.0 and 36.0 and 29.0 and 42.0
inhibition at 1 µM [1, 10]: 36.3%
percent inhibition of current, individual cell ([1]; 5000 nM Inh-172): 62.0 and 70.0 and 59.0 and 77.0 and 72.0 and 79.0
inhibition at 5 µM [1, 11]: 68.1%
inhibition at 5 µM [1, 12]: 67%
percent inhibition of current, individual cell ([1]; 10000 nM Inh-172): 83.0 and 79.0 and 82.0 and 73.0 and 80.0 and 93.0
inhibition at 10 µM [1, 13]: 82.7%
inhibition at 10 µM [1, 14]: 89%
Hill Coefficient ([1]; Pig WT): 0.83 ± 0.04
IC50 ([1]; Pig WT): 1860 ± 120 nM
IC50 of pig WT-CFTR higher than human WT-CFTR ([1]; cho cells inside-out patch): ~ 20 fold
percent inhibition of current, individual cell ([2]; 50 nM Inh-172): 45.0 and 25.0
inhibition at 0.05 µM [2, 6]: 35.8%
inhibition at 0.05 µM ([2]; 50 nM Inh-172, read-out: percent inhibition of current, individual cell): 34%
percent inhibition of current, individual cell ([2]; 100 nM Inh-172): 51.0 and 37.0 and 50.0
inhibition at 0.1 µM [2, 7]: 44.3%
inhibition at 0.1 µM [2, 15]: 39%
percent inhibition of current, individual cell ([2]; 500 nM Inh-172): 86.0 and 76.0
inhibition at 0.5 µM [2, 8]: 81.8%
inhibition at 0.5 µM [2, 9]: 79%
percent inhibition of current, individual cell ([2]; 1000 nM Inh-172): 94.0 and 89.0
inhibition at 1 µM [2, 10]: 92%
inhibition at 1 µM [2, 16]: 91%
percent inhibition of current, individual cell ([2]; 10000 nM Inh-172): 100.0
inhibition at 10 µM [2, 13]: 99.8%
inhibition at 10 µM [2, 14]: 99%
Hill Coefficient ([2]; h-pTMD1-h): 0.98 ± 0.10
IC50 ([2]; h-pTMD1-h): 110 ± 10 nM
inhibition at 0.1 µM [3, 7]: 18.4%
inhibition at 0.5 µM [3, 8]: 46.3%
inhibition at 1 µM [3, 17]: 58.5%
inhibition at 1 µM [3, 18]: 68%
inhibition at 5 µM [3, 17]: 83.3%
inhibition at 5 µM [3, 18]: 89%
inhibition at 10 µM [3, 17]: 91%
inhibition at 10 µM [3, 18]: 93%
Hill Coefficient ([3]; h-pTM8-h): 0.80 ± 0.02
IC50 ([3]; h-pTM8-h): 640 ± 20 nM
percent inhibition of current, individual cell ([4]; 100 nM Inh-172): 2 and 8 and 0.5
inhibition at 0.1 µM [4, 7]: 3.5%
percent inhibition of current, individual cell ([4]; 500 nM Inh-172): 32 and 33
inhibition at 0.5 µM [4, 8]: 37.3%
inhibition at 0.5 µM [4, 9]: 42%
percent inhibition of current, individual cell ([4]; 1000 nM Inh-172): 60 and 69 and 44 and 52 and 49
inhibition at 1 µM [4, 10]: 54.8%
percent inhibition of current, individual cell ([4]; 5000 nM Inh-172): 89 and 75 and 91 and 80
inhibition at 5 µM [4, 11]: 85%
inhibition at 5 µM [4, 12]: 90%
percent inhibition of current, individual cell ([4]; 10000 nM Inh-172): 86 and 88
inhibition at 10 µM [4, 13]: 89.8%
inhibition at 10 µM [4, 14]: 95%
Hill Coefficient ([4]; W1145A): 1.08 ± 0.12
IC50 ([4]; W1145A): 880 ± 90 nM
percent inhibition of current, individual cell ([5]; 100 nM Inh-172): 11
inhibition at 0.1 µM [5, 7]: 16%
inhibition at 0.1 µM [5, 15]: 21%
percent inhibition of current, individual cell ([5]; 500 nM Inh-172): 42 and 48
inhibition at 0.5 µM [5, 8]: 44.3%
inhibition at 0.5 µM [5, 9]: 43%
percent inhibition of current, individual cell ([5]; 1000 nM Inh-172): 59 and 67
inhibition at 1 µM [5, 10]: 62.3%
inhibition at 1 µM [5, 16]: 61%
percent inhibition of current, individual cell ([5]; 5000 nM Inh-172): 83 and 87 and 70
inhibition at 5 µM [5, 11]: 81.3%
inhibition at 5 µM [5, 12]: 85%
percent inhibition of current, individual cell ([5]; 10000 nM Inh-172): 91 and 83
inhibition at 10 µM [5, 13]: 89.5%
inhibition at 10 µM [5, 14]: 92%
Hill Coefficient ([5]; W1145L): 0.82 ± 0.07
IC50 ([5]; W1145L): 640 ± 60 nM
